The target in data set [1] is T1, ATP-dependent translocase ABCB1 (Homo sapiens, UniProt P08183). Briefly: Concentration required for 50% inhibition at binding site of human P-Glycoprotein (P-gp) in one-affinity model.
Data set [2] has as its target T1, ATP-dependent translocase ABCB1. Kind of data set: Fraction of high affinity at binding site of human P-Glycoprotein (P-gp) in two-affinity model.
Data set [3] has the same target. Kind of data set: High affinity constant at binding site of human P-Glycoprotein (P-gp) in two-affinity model.

SMILES strings stand for the structures.

Data on 13 molecules can be found in ChEMBL document CHEMBL1135688, “Pharmacophore model of drugs involved in P-glycoprotein multidrug resistance: explanation of structural variety (hypothesis)” (J Med Chem, 2002).

T1 sequence (P08183 whole entry): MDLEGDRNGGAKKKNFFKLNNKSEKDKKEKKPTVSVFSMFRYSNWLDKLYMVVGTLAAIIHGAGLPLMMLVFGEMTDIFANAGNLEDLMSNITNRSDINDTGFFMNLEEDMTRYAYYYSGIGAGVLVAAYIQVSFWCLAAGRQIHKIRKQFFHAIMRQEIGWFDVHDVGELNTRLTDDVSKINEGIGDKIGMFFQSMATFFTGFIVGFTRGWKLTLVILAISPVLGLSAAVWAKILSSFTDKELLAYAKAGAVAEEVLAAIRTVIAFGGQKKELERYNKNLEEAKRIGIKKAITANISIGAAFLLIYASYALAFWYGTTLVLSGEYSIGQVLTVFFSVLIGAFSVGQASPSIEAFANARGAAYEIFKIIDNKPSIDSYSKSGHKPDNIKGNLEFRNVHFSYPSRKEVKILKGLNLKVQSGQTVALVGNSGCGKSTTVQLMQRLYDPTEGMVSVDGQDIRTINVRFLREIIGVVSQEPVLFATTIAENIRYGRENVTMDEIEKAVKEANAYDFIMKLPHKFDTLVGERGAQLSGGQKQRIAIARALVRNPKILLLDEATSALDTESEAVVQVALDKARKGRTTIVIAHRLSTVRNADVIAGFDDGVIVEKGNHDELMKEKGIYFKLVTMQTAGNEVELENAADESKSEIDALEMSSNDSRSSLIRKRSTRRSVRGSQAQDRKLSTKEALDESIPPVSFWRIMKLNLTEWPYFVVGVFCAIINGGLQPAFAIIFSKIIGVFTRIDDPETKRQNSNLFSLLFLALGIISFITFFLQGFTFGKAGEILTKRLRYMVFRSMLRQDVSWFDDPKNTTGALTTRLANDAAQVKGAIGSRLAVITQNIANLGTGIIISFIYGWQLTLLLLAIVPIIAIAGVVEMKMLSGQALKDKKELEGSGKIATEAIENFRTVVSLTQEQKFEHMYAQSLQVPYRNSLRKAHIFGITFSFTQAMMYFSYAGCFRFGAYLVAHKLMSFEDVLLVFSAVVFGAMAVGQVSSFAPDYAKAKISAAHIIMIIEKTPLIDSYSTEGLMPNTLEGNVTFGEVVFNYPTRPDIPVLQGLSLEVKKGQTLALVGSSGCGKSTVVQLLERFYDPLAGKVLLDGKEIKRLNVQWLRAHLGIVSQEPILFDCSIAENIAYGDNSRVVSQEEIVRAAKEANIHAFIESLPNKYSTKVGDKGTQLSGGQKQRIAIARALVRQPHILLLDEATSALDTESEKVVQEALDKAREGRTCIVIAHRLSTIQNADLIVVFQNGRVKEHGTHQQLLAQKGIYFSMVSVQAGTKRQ

Molecule `COc1ccc(CCNCCCC(C#N)(c2ccc(OC)c(OC)c2)C(C)C)cc1OC` (racemic) [NORVERAPAMIL] had an IC50 in data set [1] of 4.24 µM. As to `C=C[C@H]1C[N@@]2CC[C@H]1C[C@H]2[C@H](O)c1ccnc2ccc(OC)cc12` [QUININE], in data set [2], the Binding site fraction is listed as 0.2. Same read-out and setting: in the case of `CC(C)NCC(O)COc1cccc2ccccc12` (stereo not given) [PROPRANOLOL] it was 0.5; in that of `C=C[C@H]1C[N@@]2CC[C@H]1C[C@@H]2[C@@H](O)c1ccnc2ccc(OC)cc12` [QUINIDINE], 0.2. On the same count and under the same terms, in the case of `COCCc1ccc(OCC(O)CNC(C)C)cc1` (stereo not given) [METOPROLOL] it was 0.2. The molecule `COc1ccc2[nH]c([S+]([O-])Cc3ncc(C)c(OC)c3C)nc2c1` (stereo in doubt; form 3) [OMEPRAZOLE] yielded an IC50 in data set [1] of 91.2 µM. The molecule `CC[C@]1(O)C[C@@H]2CN(CCc3c([nH]c4ccccc34)[C@@](C(=O)OC)(c3cc4c(cc3OC)N(C)[C@H]3[C@@](O)(C(=O)OC)[C@H](OC(C)=O)[C@]5(CC)C=CCN6CC[C@]43[C@@H]65)C2)C1` [VINBLASTINE] gave a Binding site fraction in data set [2] of 0.4. Turning to `COc1ccc2[nH]c([S+]([O-])Cc3ncc(C)c(OC)c3C)nc2c1` (stereo in doubt; form 1) [OMEPRAZOLE], the IC50 in data set [1] stood at 89 µM.

Molecule `COc1ccc2[nH]c([S+]([O-])Cc3ncc(C)c(OC)c3C)nc2c1` (stereo in doubt; form 2) [OMEPRAZOLE] returned a concentration for half-maximal inhibition (IC50) in data set [1] of 97.2 µM. With `CC(C)NCC(O)COc1ccc(CCNC(=O)NC(C)C)cc1` (stereo not given) [PAFENOLOL], the Binding site fraction in data set [2] is recorded as 0.2.

The molecule `CN(C)CCCN1c2ccccc2Sc2ccc(Cl)cc21` [CHLORPROMAZINE] showed a Binding site fraction in data set [2] of 0.8.

As for `COC(=O)c1ccccc1-c1c2ccc(=N)cc-2oc2cc(N)ccc12`, in data set [3], the affinity corresponds to a Ki of 0.1 µM. In data set [2], this molecule displayed a Binding site fraction of 0.7. Besides, the IC50 in data set [1] amounted to 0.5 µM. Consider `O=C(CCCN1CCC(O)(c2ccc(Cl)cc2)CC1)c1ccc(F)cc1` [HALOPERIDOL], for which the Binding site fraction in data set [2] is listed as 0.3.

For orientation: IC50 means the concentration needed to halve the response being measured. A lower IC50 goes with greater potency. For orientation: Ki means a measure of affinity in units of concentration, obtained from inhibition or displacement. A low value points to tighter binding.
